Reference: PMC10747822 (Pharmaceutics, 2023)

Key:
[1] = human whole blood (K-EDTA); conditions: room temperature, up to 2 h
[2] = Pooled human plasma (Li-heparin); conditions: room temperature, up to 2 h

For Ac-[D-Leu]LLLRVK-amba, the not cleaved [1] was “no detectable degradation over at least 2 h” and the not cleaved [2] was “no detectable degradation over at least 2 h”.
